Source: article PMC5190008, “BO-1055, a novel DNA cross-linking agent with remarkable low myelotoxicity shows potent activity in sarcoma models” (Oncotarget, 2016)

How the values were obtained:
[1] = test system: Ewing sarcoma patient samples; assay: Alamar Blue cell proliferation assay; type: cell-based, human
Source text: Ewing sarcoma cell line A673, Prostate (PC-3, LNCaP, 22RV/HL2), colon (HCT-116), breast (MCF-7, MX-1), small cell lung cancer (H526) and renal (A-498, 786-0) cancer cell lines were purchased from American Type Culture Collection (ATCC, Manassas, VA). Dr. Marc Ladanyi (Department of Pathology, MSKCC) kindly provided the following cell lines: CHLA-9, TC32, RMS559 and TE-381. Dr. Gary Schwartz kindly provided the following osteosarcoma cell lines: OSA, U20S and SAOS. Dr. Constantine Markides, (CHRISTUS Stehlin Foundation for Cancer Research, TX) kindly provided Ewing sarcoma and desmoplastic small round cell tumor (DSRCT) cell lines, including CAR, ZUC, ORA, BER and BOD. Early cultures derived from Ewing sarcoma patient samples, including IARC-EW1, SIM-1 were obtained from the MSKCC monoclonal antibody core facility. […]
AlamarBlue® assay (Invitrogen, Carlsbad, CA, USA) was performed to evaluate anti-proliferative activity of the drugs in cell lines and primary cells. […] The absorbance was measured using the Synergy H1 hybrid multi-mode microplate reader (BioTek, USA). The drug effect was quantified as the percentage of control absorbance at 540 nm and 585 nm. Optical density was determined for 3 replicates per treatment condition and cell proliferation in drug-treated cells was normalized to their respective controls. […]

γH2AX in A673 cells = assay: γ-H2AX expression by flow cytometry; type: cell-based, human; details: A673 compared to hMSC and cord blood CD34+ cells, 3h
Protocol: Staining of γ-H2AX antigen was carried out following the manufacturer's protocol. Briefly, human sarcoma cells and human mesenchymal stem cells were treated with various concentrations of BO-1055 at 37°C. At 3h, the cultures were washed with 1 ml of cold PBS three times, detached with 0.05% trypsin, and cells were pelleted. The pelleted cells were resuspended with 0.2 ml Cytofix/Cytoperm solution (BD Bioscience), incubated at 4°C for 20 minutes, and then washed with 1 ml cold Perm/Wash solution (BD Bioscience) three times. After anti-human γ-H2AX antibody (BD Bioscience) staining, the specimens were subjected to flow cytometric analysis via a Calibur flow instrument (BD Bioscience).

[2] = test system: benign cells (mesenchymal stromal cells, fetal lung fibroblasts and myofibroblasts, hematopoietic progenitor cells, endothelial cells, MS-5); assay: Alamar blue cytotoxicity in benign cells; type: cell-based, human, murine; details: up to 10 μM, most of the tested cells
Protocol: We also examined the effect of BO-1055 in inhibiting the cell growth of different types of benign cells including human mesenchymal stromal cells, fetal lung fibroblasts and myofibroblasts, hematopoietic progenitor cells, bone marrow derived endothelial cells and human umbilical vein endothelial cells and murine mesenchymal stromal cells, MS-5 (murine).
AlamarBlue® assay (Invitrogen, Carlsbad, CA, USA) was performed to evaluate anti-proliferative activity of the drugs in cell lines and primary cells. Cells were plated in 96-well plates ([…] in 200 μL of medium). After 12 h, one of the previously mentioned drugs was added to each well at the specified concentration and incubated for 72 h. At the end of the incubation period, 20 μL of stock solution (0.312 mg/mL) of the Alamar Blue was added to each well. The absorbance was measured using the Synergy H1 hybrid multi-mode microplate reader (BioTek, USA). The drug effect was quantified as the percentage of control absorbance at 540 nm and 585 nm. Optical density was determined for 3 replicates per treatment condition and cell proliferation in drug-treated cells was normalized to their respective controls. All experiments were performed in triplicate.

`CN(C)CCNC(=O)c1cccc(NC(=O)Nc2ccc(N(CCCl)CCCl)cc2)c1` [BO-1055] was tested, and the IC50 [1] was “submicromolar”, the γH2AX level (γH2AX in A673 cells) was “significantly elevated” and the “cytotoxicity against benign cells” value [2] was “minimal to no cytotoxicity”.
